Where two headings read alike, the source gives them in different places.

Data set [1] relates to Streptococcus mutans strain GS-5. Briefly: Growth of S. mutans GS-5 in nutrient medium (Klett optical density, doubling time, final pH). The format is cell-based. The conditions noted are these: 0.7% concentration; 37°C; columns 1-3 of Table I. The procedure:
(§1) All compounds used in the test were in 0.7% concentration. The same concentrations were used to determine acid production in a salivary system. Streptococcus mutans strain GS-5, a human cariogenic strain, was used in all cases except the salivary test system in which the endogenous flora was used.
Klett tubes containing a tryticase-soy-yeast- cysteine nutrient and fitted with septum caps werg flushed with nitrogen gas and preincubated 30 minutes at 37°C using standard sterile technicuies, then in- noculated with a 2% innoculum of a suspension of S. mutans GS-5 cells in phosphate buffer. These were then incubated at 37°C. Optical density was measured by Klett readings (red filter) at half hour intervals.
The first three columns in the table refer to effects of the compounds on the growth characteristics of a cariogenic strain of the bacteria Streptococcus mutans. Reduction of total growth (lowered final Klett), reduction of growth rate (increase in doubling time) and reduction of acid produced (increase in final pH) are the effects desired.

The subject of the next data set is dextran-sucrase (DSU). Briefly: Dextran-sucrase (DSU) activity of S. mutans. The format is cell-based, Streptococcus mutans. Particulars: 0.7% concentration; for dextran-sucrase (DSU) activity: columns 4-8 of Table I.
Source text: as §1
The next six columns refer to certain effects on the metabolism of the bacteria. Columns 4-8 represent measures of the activity of an enzyme (or group of enzymes) called dextran-sucrase (DSU) which is one of the principle sources of the cariogenicity of this organism. DSU converts dietary sugar into polymers which are a major ingredient of cariogenic dental plaque. Such plaque is an accumulation of these polymers, playing an essential role in caries formation and periodontal disease. Therefore, a reduction in plaque formation by means of a reduction'in DSU activity is a desired effect. In particular, a reduction in "mean specific DSU activity" - that is, amount of activity per bacterial cell - is desired since that would imply a real effect on the organisms' metabolism instead of merely a reduction in the number of cells. […] Erythritol, however, is the best in the critical measure "DSU mean specific activity (column 8). In column 9, lactic acid production is measured. Lactic acid, produced by cariogenic bacteria in response to ingestion of a meal, can increase acidity enough to dissolve tooth mineral and initiate caries. Therefore, reduction in lactic acid production is desirable. […] Finally, in the last column (10) are measures of the effect on the pH of natural saliva. In this case, the natural mixed population of bacteria is used instead of a pure culture of one strain as in the previous columns. A positive number (pH increase, corresponding to reduced acidity) is the desired result.

Data set [2] has as its system Streptococcus mutans strain GS-5. The data set is described as follows: Lactic acid production (Sigma kit, NADH absorbance). The format is cell-based. The conditions noted are these: 0.7% concentration; relative to "no compound" control; column 9 of Table I. On the procedure: as §1
Lactic acid production was measured using the Sigma Kit for determination of lactic acid. This procedure measures the amount of lactic acid by the following reaction: [drawing 1] NAD is originally present-in excess and the increase absorbance of […] due to NADH formation becomes a measure of lactic acid originally present.
The next six columns refer to certain effects on the metabolism of the bacteria. Columns 4-8 represent measures of the activity of an enzyme (or group of enzymes) called dextran-sucrase (DSU) which is one of the principle sources of the cariogenicity of this organism. DSU converts dietary sugar into polymers which are a major ingredient of cariogenic dental plaque. Such plaque is an accumulation of these polymers, playing an essential role in caries formation and periodontal disease. Therefore, a reduction in plaque formation by means of a reduction'in DSU activity is a desired effect. […] In column 9, lactic acid production is measured. […]

In another data set the test system is endogenous flora. The data set is described as follows: Salivary test system: pH change of pooled saliva. The format is cell-based, human saliva. The conditions noted are these: final concentration 0.7%; anaerobic, 37°C, four hours; column 10 of Table I. On the procedure:
as §1
For the salivary test system, saliva was pooled from volunteers who had fasted three hours and the pH of the pooled saliva was noted. 4.95 ml of pool saliva was aseptically transferred to a series of sterile test tubes. […] of each compound were prepared and sterilized. 0.05 ml of each was aseptically added to the test tube of saliva to give a final concentration of 0.7%. The test tubes were incubated anaerobically ! at 37°C for four hours. The pH of each was then measured.
The next six columns refer to certain effects on the metabolism of the bacteria. Columns 4-8 represent measures of the activity of an enzyme (or group of enzymes) called dextran-sucrase (DSU) which is one of the principle sources of the cariogenicity of this organism. DSU converts dietary sugar into polymers which are a major ingredient of cariogenic dental plaque. Such plaque is an accumulation of these polymers, playing an essential role in caries formation and periodontal disease. […] In column 9, lactic acid production is measured. […]

Data set [3] deals with enzymes responsible for dental caries formation. The conditions noted are these: cited from earlier work.
Data set [4] concerns dental caries. Particulars: compared with mannitol or sorbitol; cited from earlier work.
In data set [5] the test system is dental caries. The conditions noted are these: in diet, man; cited from earlier work.
The conditions of data set [6]: cited from earlier work.
The test system of data set [7] is dental caries. Particulars: cited from earlier work.
For data set [8] the following is noted: cited from earlier work. This is another data set of the same source.
For data set [9] the following is noted: humans; cited from earlier work.

On to `OC[C@@H](O)[C@H](O)[C@@H](O)CO` [xylitol], for which the “growth characteristics: total growth (final Klett), growth rate (doubling time), acid produced (final pH)” value in data set [1] is listed as “best results”. Moreover, the “dextran-sucrase (DSU) activity” value in the data set with dextran-sucrase (DSU) was “superior to the other substances tested”. Further, the lactic acid production entry in data set [2] was “superior to the other test substances”. Moreover, the “effect on the pH of natural saliva” value in the data set with endogenous flora was “superior to the other test substances”. Besides, in [3], the “formation of enzymes responsible for dental caries formation” value (shortened to “formation of enzymes responsible”) is on record as “retarded”. Also, the “reducing the incidence of dental caries” value with dental caries [4] is reported as “appreciably more effective”. The “incidence of dental caries” value in the data set with dental caries [5] was “dramatic reduction in the incidence of dental caries”. Also, in data set [6] (rats), the diarrhea result is “caused diarrhea”. For the same molecule, in the data set with dental caries [7] (rats), the drinking water intake result is listed as “increased drinking water intake” and the preventing dental caries result is reported as “more effective than sorbitol”.

As for `OC[C@@H](O)[C@@H](O)[C@H](O)[C@@H](O)CO` [sorbitol], the “formation of enzymes responsible” value in data set [3] is reported as “retarded”. In [6] (rat, in vivo), the diarrhea entry was “caused diarrhea”. In addition, in the data set with dental caries [7] (rat, in vivo), the drinking water intake entry is on record as “increased drinking water intake”.

Consider `OC[C@@H](O)[C@@H](O)CO` [erythritol], for which the “growth characteristics: total growth (final Klett), growth rate (doubling time), acid produced (final pH)” value in data set [1] is “closely following”. Further, the “DSU mean specific activity” value in the data set with dextran-sucrase (DSU) (activity per bacterial cell, column 8 of Table I) is recorded as “the best”. In the data set with dextran-sucrase (DSU), the “dextran-sucrase (DSU) activity” value is “superior to the other substances tested”. Moreover, the lactic acid production entry in [2] is “only substance which reduced lactic acid”. Besides, in the data set with endogenous flora, the “effect on the pH of natural saliva” value is on record as “best substance in the test”. Also, the “saturated solution in water” value in [8] is recorded as “about 38 % w/w”. The “metabolism after oral ingestion” value in [9] is “not significantly metabolized”.

As for `OC[C@@H](O)[C@@H](O)[C@H](O)[C@H](O)CO` [mannitol], the “formation of enzymes responsible” value in data set [3] is listed as “retarded”.

Source of the values: patent EP0009325A1, “Erythritol cointaining anti-caries compositions” (PFIZER INC., priority 1978, dated 1980).
